Results: patent US6664406B1, “Nervonic acid derivatives, their preparation and use” (Croda International PLC, priority 1999, dated 2003)
Marks after values point to notes of the source that are not given here.

Columns and labels:
[1] = test system: chronic EAE in the Biozzi mouse model; assay: NA:NA and NA:GLA in ethyl oleate in chronic relapsing EAE (Example 7); type: in vivo; conditions: for AG: Percentage of mice in the group / CFT: Percentage of mice in the group / CHLP: Percentage of mice in the group / HLH: Percentage of mice in the group / PFT: Percentage of mice in the group / PHLP: Percentage of mice in the group: ethyl oleate vehicle
Experimental: (§1) Male Biozzi mice weighing 30-35 g were injected in each flank with 0.15 mL of an emulsion containing lyophilised mouse spinal cord, phosphate buffered saline and incomplete Freund's adjuvant supplemented with Mycobacterium butyricum and Mycobacterium tuberculosis H37Ra.
(§2) 1: Partial Flaccid Tail (PFT), 2: Complete Flaccid Tail (CFT), 3: Impaired Righting Reflex (IRR), 4: Ataxic Gait (AG), 5: Hind Limb Hypotonia (HLH), 6: Partial Hind Limb Paralysis (PHLP), 7: Complete Hind Limb Paralysis (CHLP), 8: Moribund (M), 9: Dead (D).

[2] = test system: CREAE in the Biozzi mouse model; assay: NA:NA and NA:GLA in Miglyol 810 in CREAE (Example 8); type: in vivo
Experimental: as §1, §2
Therefore, Miglyol appeared well-suited for use as a vehicle in subsequent studies to determine the efficacy of compounds in CREAE. Therefore, using Miglyol 810 as the new vehicle, prophylactic effects of NA:NA and NA:GLA were re-assessed on CREAE in the Biozzi mouse model (90% dilution, 1000 mg/kg/day, up to 43 days PI).

[3] = Nervonic acid composition of total polar lipid from mouse brain (Example 9); type: in vivo; conditions: CREAE-inoculated mice
Experimental: Upon termination of certain biological evaluations, rat or mice brains were extracted and the fatty acid composition of total polar lipids from rat/mouse brain was determined.
Biological material was sent for analysis to Dr J. Hendersen at the University of Stirling, Institute of Aquaculture, Scotland. Analyses were carried out on two batches of experiments (detailed respectively in Example 6 and Example 7).

[4] = Miscibility / physical state of oral compositions in vehicle; type: physicochemical; conditions: room temperature (about 20° C.); dilution in vehicle
Description: Formulations of the present invention suitable for oral administration may be in the form of discrete units such as capsules, cachets, tablets or lozenges, each containing a predetermined amount of the active ingredient; in the form of a powder or granules; in the form of a solution or a suspension in an aqueous liquid or non-aqueous liquid; or in the form of an oil-in-water emulsion or a water-in-oil emulsion. The active ingredient may also be in the form of a bolus, electuary or paste. For such formulations, a range of dilutions of the active ingredient in the vehicle is suitable, such as from 1% to 99%, preferably 5% to 50% and more preferably 10% to 25% dilution. Depending upon the level of dilution, the formulation will be either a liquid at room temperature (in the region of about 20° C.) or a low-melting solid.

[5] = test system: neurological EAE in the Lewis rat; assay: NA:NA (ethyl oleate formulation) in acute EAE (Example 5)
Experimental: Male Lewis rats, weighing 240-360 g on the day of inoculation, were injected in each rear footpad with 0.1 ml of an emulsion containing equal parts of guinea pig spinal cord, phosphate buffered saline (PBS) and incomplete Freund's adjuvant supplemented with 10 mg/ml Mycobacterium tuberculosis H37Ra.
Animals were weighed daily and assessed for neurological disease from day 7 post-inoculation (PI). Rats displaying symptoms of EAE were scored as follows: 1: flaccid tail (FT), 2: hind limb hypotonia (HLH), 3: partial hind limb paralysis (PHLP), 4: complete hind limb paralysis (CHLP), 5: moribund or dead.
Control-sensitised animals received ethyl oleate vehicle or were undosed, and each treatment contained 10 animals.
Students t-test was used to assess significant differences in neurological scores and the Fishers exact probability test for the presence or absence of symptoms.

[6] = Biozzi mouse, 10% w/w in ethyl oleate, 1000 mg/kg body weight/day
[7] = acute phase, Biozzi mouse, 10% w/w in ethyl oleate, 1000 mg/kg body weight/day
[8] = relapse phase, Biozzi mouse, 10% w/w in ethyl oleate, 1000 mg/kg body weight/day
[9] = acute phase, Miglyol 810 vehicle, 1000 mg/kg/day
[10] = acute phase, Miglyol 810 vehicle, n=12, NA:GLA n=11
[11] = relapse phase, Miglyol 810 vehicle, 1000 mg/kg/day
[12] = relapse phase, Miglyol 810 vehicle, NA:GLA n=9, NA:NA n=11
[13] = 10% w/w in ethyl oleate, 1000 mg/kg body weight/day
[14] = 10% w/w in ethyl oleate, oral 1000 mg/kg body weight/day, n=10

With `CCCCCCCC/C=C\CCCCCCCCCCCCCC(=O)OCCCOC(=O)CCCCCCCCCCCCC/C=C\CCCCCCCC` [NA:NA, 1,3-di-(z-15-tetracosenoyloxy)propane] the “Acute and relapse symptoms (mean neurological scores)” value [1, 6] was “completely abolished”, the onset of relapse [1, 6] was “delayed, but not significantly” and the “Mean day of symptom loss” value [1, 7] was 24.7 ± 3.2 days. The “Mean day of symptom onset” value [1, 7] was 22.3 ± 3.8 days, the “Mean duration of symptoms” value [1, 7] was 2.3 ± 1.2 days and the “Number of dead mice” value [1, 7] was 0/10. The “No. of diseased mice” value ([1]; acute phase, Biozzi mouse, […], oral 1000 mg/kg body weight/day, 5 days prior to inoculation and 43 days PI, n=10) was 3/10, the “AG: Percentage of mice in the group” value ([1]; acute phase, n=10) was 20% and the “CFT: Percentage of mice in the group” value ([1]; acute phase, n=10) was 0%. The “CHLP: Percentage of mice in the group” value ([1]; acute phase, n=10) was 0%, the “HLH: Percentage of mice in the group” value ([1]; acute phase, n=10) was 10% and the “PFT: Percentage of mice in the group” value ([1]; acute phase, n=10) was 10%. The “PHLP: Percentage of mice in the group” value ([1]; acute phase, n=10) was 0%, the “Mean day of symptom onset” value [1, 8] was 43.3 ± 1.2 days and the “No. of diseased mice” value [1, 8] was 3/10. The “Number of dead mice” value [1, 8] was 1/10, the “AG: Percentage of mice in the group” value ([1]; relapse phase, n=10) was 30% and the “CFT: Percentage of mice in the group” value ([1]; relapse phase, n=10) was 0%. The “CHLP: Percentage of mice in the group” value ([1]; relapse phase, n=10) was 0%, the “HLH: Percentage of mice in the group” value ([1]; relapse phase, n=10) was 30% and the “PFT: Percentage of mice in the group” value ([1]; relapse phase, n=10) was 20%. For the same compound, the “PHLP: Percentage of mice in the group” value ([1]; relapse phase, n=10) was 0%, the “effect on the neurological course of CREAE” value ([2]; Biozzi mouse, Miglyol 810 vehicle, 1000 mg/kg/day) was “did not seem significantly to alter the course of CREAE” and the “No. of diseased mice” value ([2]; acute phase, Biozzi mouse, Miglyol 810 vehicle (90% dilution), 1000 mg/kg/day, up to 43 days PI) was 12/12. For the same compound, the “Mean day of symptom loss” value [2, 9] was 26.3 ± 1.0 days, the “Mean day of symptom onset” value [2, 9] was 17.1 ± 1.9 days and the “Mean duration of symptoms” value [2, 9] was 9.2 ± 1.6 days. For the same compound, the “Number of dead mice” value [2, 9] was 1/12, the “AG: Percentage of mice in the group” value [2, 10] was 100% and the “CFT: Percentage of mice in the group” value [2, 10] was 100%. For the same compound, the “CHLP: Percentage of mice in the group” value [2, 10] was 58%, the “D (dead): Percentage of mice in the group” value [2, 10] was 8% and the “HLH: Percentage of mice in the group” value [2, 10] was 100%. The “IRR: Percentage of mice in the group” value [2, 10] was 100%, the “M (moribund): Percentage of mice in the group” value [2, 10] was 0% and the “PFT: Percentage of mice in the group” value [2, 10] was 100%. For the same compound, the “PHLP: Percentage of mice in the group” value [2, 10] was 75%, the “Mean day of symptom loss” value [2, 11] was 44.0 ± 3.6 days and the “Mean day of symptom onset” value [2, 11] was 34.3 ± 6.6 days. The “Mean duration of symptoms” value [2, 11] was 13.7 ± 4.0 days, the “No. of diseased mice” value [2, 11] was 9/11 and the “Number of dead mice” value [2, 11] was 3/11. For the same compound, the “AG: Percentage of mice in the group” value [2, 12] was 82%, the “CFT: Percentage of mice in the group” value [2, 12] was 82% and the “CHLP: Percentage of mice in the group” value [2, 12] was 73%. For the same compound, the “D (dead): Percentage of mice in the group” value [2, 12] was 27%, the “HLH: Percentage of mice in the group” value [2, 12] was 82% and the “IRR: Percentage of mice in the group” value [2, 12] was 82%. For the same compound, the “M (moribund): Percentage of mice in the group” value [2, 12] was 0%, the “PFT: Percentage of mice in the group” value [2, 12] was 82% and the “PHLP: Percentage of mice in the group” value [2, 12] was 73%. The “NA levels in mouse brain lipids compared to undosed and vehicle” value [3] was “enhancement of the NA levels in brain lipids”, the “concentration at which compositions are liquids at room temperature” value [4] was at most 25% and the “CHLP: Number of animals showing symptoms/total” value [5, 13] was 1/10. The “FT: Number of animals showing symptoms/total” value [5, 13] was 6/10**, the “HLH: Number of animals showing symptoms/total” value [5, 13] was 4/10*** and the Neurological scores [5, 13] was “consistently lower compared to values recorded for undosed and vehicle-treated animals”. The “PHLP: Number of animals showing symptoms/total” value [5, 13] was 3/10, the “animals that experienced symptoms of disease” value [5, 13] was 60% and the “effect on incidence of disease” value [5, 13] was “significantly reduces the incidents of disease”. The “Mean day of final symptom loss (±SD)” value [5, 14] was 16.3 ± 1.0 days, the “Mean day of symptom onset (±SD)” value [5, 14] was 12.3 ± 0.8 days and the “Mean duration of symptoms (day ± SD)” value [5, 14] was 4.0 ± 1.2 days. The Number of dead/total [5, 14] was 0/10 and the Number diseased/total ([5]; […], oral 1000 mg/kg body weight/day, 5 days prior to inoculation and 22 days PI, n=10) was 6/10*.
